For one compound, IC50 results are on record in article PMC6563050, “Involvement of TREK-1 Channel in Cell Viability of H9c2 Rat Cardiomyoblasts Affected by Bupivacaine and Lipid Emulsion” (Cells, 2019).

Each structure is given as a SMILES string.

The experiment deals with T1, TREK-1 (TWIK-related potassium channel-1) (Rattus norvegicus, UniProt Q920B6).
T1 construct: gene Kcnk2
T1 sequence (Q920B6 1-426): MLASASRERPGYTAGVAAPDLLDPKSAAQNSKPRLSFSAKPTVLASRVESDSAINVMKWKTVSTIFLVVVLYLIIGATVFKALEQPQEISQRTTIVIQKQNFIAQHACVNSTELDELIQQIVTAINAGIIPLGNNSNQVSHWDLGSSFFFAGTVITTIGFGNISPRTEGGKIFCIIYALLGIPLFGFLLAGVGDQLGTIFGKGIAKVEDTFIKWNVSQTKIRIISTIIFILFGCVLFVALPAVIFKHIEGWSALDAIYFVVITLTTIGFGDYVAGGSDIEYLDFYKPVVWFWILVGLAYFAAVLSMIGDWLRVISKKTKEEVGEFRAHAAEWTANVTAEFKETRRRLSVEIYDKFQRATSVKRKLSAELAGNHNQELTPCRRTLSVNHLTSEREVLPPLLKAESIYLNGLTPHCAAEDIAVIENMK
Put plainly: whole-cell and inside-out single-channel patch clamp of TREK-1 overexpressed in HEK-293 cells. The format is cell-based.

`CCCCN1CCCCC1C(=O)Nc1c(C)cccc1C` (stereo not shown) [bupivacaine]: the IC50 amounted to 302 ± 17.6 µM.
